# ± gives the expanded uncertainty stated by the source.
# Legend:
# [1] = xn = mol fraction of the nth substance listed; settings: 100 kPa, Liquid, x1 = 0.25; for electrical conductivity: Alternating current cell with electrodes; for viscosity: Falling or rolling sphere viscometry; for speed of sound: Single path-length method; for mass density: Vibrating tube method
# [2] = refractive index (Na D-line) (dimensionless); xn = mol fraction of the nth substance listed; settings: 100 kPa, Liquid, Standard Abbe refractometry, x1 = 0.25
structure (smiles),measurement,setting,value
CCCC[N+](CCCC)(CCCC)Cc1ccccc1.[Cl-] [benzyltributylammonium chloride] + OCCO,electrical conductivity,[1]; 283.15 K,0.03 ± 0.001 S/m
same,viscosity,[1]; 283.15 K,901.4 ± 88 mPa·s
same,speed of sound,[1]; 283.15 K,1734.9 ± 3.7 m/s
same,mass density,[1]; 283.15 K,1045.37 ± 11 kg/m3
same,electrical conductivity,[1]; 288.15 K,0.039 ± 0.002 S/m
same,viscosity,[1]; 288.15 K,598.4 ± 50 mPa·s
same,speed of sound,[1]; 288.15 K,1716.3 ± 3.7 m/s
same,mass density,[1]; 288.15 K,1042.15 ± 10 kg/m3
same,electrical conductivity,[1]; 293.15 K,0.048 ± 0.002 S/m
same,viscosity,[1]; 293.15 K,415.2 ± 30 mPa·s
same,speed of sound,[1]; 293.15 K,1698.9 ± 3.6 m/s
same,mass density,[1]; 293.15 K,1039 ± 10 kg/m3
same,electrical conductivity,[1]; 298.15 K,0.064 ± 0.003 S/m
same,viscosity,[1]; 298.15 K,286 ± 17 mPa·s
same,speed of sound,[1]; 298.15 K,1682.2 ± 3.6 m/s
same,mass density,[1]; 298.15 K,1035.88 ± 10 kg/m3
same,electrical conductivity,[1]; 303.15 K,0.081 ± 0.003 S/m
same,viscosity,[1]; 303.15 K,211 ± 10 mPa·s
same,speed of sound,[1]; 303.15 K,1666.2 ± 3.6 m/s
same,mass density,[1]; 303.15 K,1032.74 ± 10 kg/m3
same,electrical conductivity,[1]; 308.15 K,0.099 ± 0.004 S/m
same,viscosity,[1]; 308.15 K,155.5 ± 6.3 mPa·s
same,speed of sound,[1]; 308.15 K,1650.5 ± 3.5 m/s
same,mass density,[1]; 308.15 K,1029.6 ± 10 kg/m3
same,electrical conductivity,[1]; 313.15 K,0.122 ± 0.005 S/m
same,viscosity,[1]; 313.15 K,117.1 ± 3.9 mPa·s
same,speed of sound,[1]; 313.15 K,1635.2 ± 3.5 m/s
same,mass density,[1]; 313.15 K,1026.44 ± 10 kg/m3
same,electrical conductivity,[1]; 318.15 K,0.148 ± 0.006 S/m
same,viscosity,[1]; 318.15 K,89.9 ± 2.5 mPa·s
same,speed of sound,[1]; 318.15 K,1620.1 ± 3.5 m/s
same,mass density,[1]; 318.15 K,1023.29 ± 10 kg/m3
same,electrical conductivity,[1]; 323.15 K,0.181 ± 0.007 S/m
same,viscosity,[1]; 323.15 K,70.7 ± 1.7 mPa·s
same,speed of sound,[1]; 323.15 K,1605.2 ± 3.5 m/s
same,mass density,[1]; 323.15 K,1020.13 ± 10 kg/m3
same,electrical conductivity,[1]; 328.15 K,0.219 ± 0.009 S/m
same,viscosity,[1]; 328.15 K,55.8 ± 1.2 mPa·s
same,speed of sound,[1]; 328.15 K,1590.5 ± 3.4 m/s
same,mass density,[1]; 328.15 K,1016.97 ± 10 kg/m3
same,electrical conductivity,[1]; 333.15 K,0.262 ± 0.01 S/m
same,viscosity,[1]; 333.15 K,43.6 ± 1 mPa·s
same,speed of sound,[1]; 333.15 K,1576 ± 3.4 m/s
same,mass density,[1]; 333.15 K,1013.82 ± 10 kg/m3
same,electrical conductivity,[1]; 338.15 K,0.315 ± 0.013 S/m
same,viscosity,[1]; 338.15 K,34.9 ± 0.8 mPa·s
same,speed of sound,[1]; 338.15 K,1561.7 ± 3.4 m/s
same,mass density,[1]; 338.15 K,1010.67 ± 10 kg/m3
same,electrical conductivity,[1]; 343.15 K,0.365 ± 0.015 S/m
same,viscosity,[1]; 343.15 K,28.1 ± 0.6 mPa·s
same,speed of sound,[1]; 343.15 K,1547.9 ± 3.3 m/s
same,mass density,[1]; 343.15 K,1007.53 ± 10 kg/m3
same,refractive index,[2]; 283.15 K,1.4993 ± 0.0011
same,refractive index,[2]; 288.15 K,1.4979 ± 0.0011
same,refractive index,[2]; 293.15 K,1.4963 ± 0.0011
same,refractive index,[2]; 298.15 K,1.4947 ± 0.0011
same,refractive index,[2]; 303.15 K,1.4932 ± 0.0011
same,refractive index,[2]; 308.15 K,1.4917 ± 0.0011
same,refractive index,[2]; 313.15 K,1.4901 ± 0.0011
same,refractive index,[2]; 318.15 K,1.4886 ± 0.0011
same,refractive index,[2]; 323.15 K,1.4871 ± 0.0011
same,refractive index,[2]; 328.15 K,1.4855 ± 0.0011
same,refractive index,[2]; 333.15 K,1.484 ± 0.0011
same,refractive index,[2]; 338.15 K,1.4825 ± 0.0011
same,refractive index,[2]; 343.15 K,1.4809 ± 0.0011

# From the NIST ThermoML archive (doi:10.1021/acs.jced.8b00213)
